Literature values as cited in patent US20080004223A1, “DERMATOLOGICAL USES OF THE TRIPEPTIDE MELANOCYTE STIMULATING INHIBITORY FACTOR (MIF)” (priority 2006, published 2008).
Like-named read-outs stand apart in the source and are kept apart here. Residues, ends and D or L forms follow the SMILES beside them. No end group written: not given here.

Experiments:
[1] = mice, modified Dopa test; U.S. Pat. No. 3,708,593
[2] = water wheel test; Kastin et al. 1984
[3] = rats; Petersson et al. 2004
[4] = U.S. Pat. No. 4,278,595
[5] = rats; Petersson et al. 2001
[6] = rats; Pahdy et al. 2005
[7] = rats; Hayashi et al. 1983, 1984
[8] = rats; Kastin et al. 1985

| Compound | antidepressant activity [1] | antidepressant activity [2] | oxytocin levels [3] | metabolism subsequent to administration [4] | carrageenan induced inflammation [5] | latex-induced inflammatory hyperalgesia [6] | effect on passive avoidance [7] | inhibition of the analgesic effect of morphine [8] |
| --- | --- | --- | --- | --- | --- | --- | --- | --- |
| CC(C)C[C@H](NC(=O)[C@@H]1CCCN1)C(=O)NCC(N)=O [MIF, prolyl-leucyl-glycinamide] (H-Pro-Leu-Gly-NH2) | exhibits antidepressant activity | active as antidepressants | decreases oxytocin levels | rapidly metabolized | – | – | – | – |
| CC[C@H](C)[C@@H]1NC(=O)[C@H](Cc2ccc(O)cc2)NC(=O)[C@@H](N)CSSC[C@@H](C(=O)N2CCC[C@H]2C(=O)N[C@@H](CC(C)C)C(=O)NCC(N)=O)NC(=O)[C@H](CC(N)=O)NC(=O)[C@H](CCC(N)=O)NC1=O [oxytocin] | – | – | – | – | decreases carrageenan induced inflammation | inhibit Calotropis procera latex-induced inflammatory hyperalgesia | – | – |
| Tyr-Pro-Leu-Gly-NH2 (YPLG-NH2) [Tyr-MIF-1, brain derived peptide] | – | active as antidepressants | – | – | – | – | shown to affect passive avoidance | active in inhibiting the analgesic effect of morphine |
